Experimental findings from article PMC8058344, “ARIH1 signaling promotes anti-tumor immunity by targeting PD-L1 for proteasomal degradation” (Nature Communications, 2021) are described below.

Each structure is given as a SMILES string.

For one experiment, the target named is PDGFRa (Homo sapiens, UniProt P16234). Kind of experiment: In vitro kinase specificity profiling. The class given is biochemical.
The target in the next experiment is EGFR T790M (Homo sapiens, UniProt P00533, T790M). Kind of experiment: In vitro kinase specificity profiling. The class given is biochemical.
For the next experiment, the target named is CMET (Homo sapiens, UniProt P08581). Kind of experiment: In vitro kinase specificity profiling. It is filed as biochemical.
A further experiment has as its target IGF1R (Homo sapiens, UniProt P08069). Description: In vitro kinase specificity profiling. It is filed as biochemical.
For a further experiment, the target named is GSK3α (Homo sapiens, UniProt P49840). Kind of experiment: In vitro kinase specificity profiling for GSK3α. The class given is biochemical.
The target of another experiment is EGFR L858R (Homo sapiens, UniProt P00533, L858R). Description: In vitro kinase specificity profiling. The class given is biochemical.
A further experiment deals with T790M/L858R EGFR (Homo sapiens, UniProt P00533, L858R/T790M). Kind of experiment: In vitro kinase specificity profiling. It is filed as biochemical.
The target in the next experiment is HER2 (Homo sapiens, UniProt P04626). Kind of experiment: In vitro kinase specificity profiling. It is filed as biochemical.
Another experiment deals with PD-L1. Description: PD-L1 phosphorylation sites by mass spectrometry in HEK293T cells transfected with Flag-PD-L1. The note with it: Flag-PD-L1, 10 μM ES-072 48 h, MS-MS. The class given is cell-based, human. The protocol: Fig. 2 Phosphorylation on S279/S283 impairs the stability of PD-L1. a Mapping PD-L1 phosphorylation sites following ES-072 treatment. HEK293T cells were transfected with Flag-PD-L1 and treated with 10 μM ES-072 for 48 h. Immunoprecipitated PD-L1 was analyzed by mass spectrometry following phosphopeptide enrichment. Peptide ionization data corresponding to Ser279/283 are shown. b Schematic diagram of phosphorylated sites on PD-L1. Full-length PD-L1 was separated into an extracellular domain (ECD) and intracellular domain (ICD). SP: signal peptide; TM: transmembrane domain. c Schematic diagram of phosphorylated sites, S279 and S283 in the ICD of PD-L1. Positions of phosphorylated sites were labeled in red. This image was created by the first author. d Immunoblots of PD-L1 (anti-Flag) in HEK293T cells transfected with Flag-PD-L1 (WT) or Flag-PD-L1 (mutants) following treatment with 25 ng/mL EGF and/or 10 μM ES-072 for 48 h, 2SA represents S279A/S283A. e Immunoblots of PD-L1 (anti-Flag) in HEK293T cells transfected with Flag-PD-L1 (WT/2SA) following treatment with 20 μg/mL cycloheximide (CHX) for indicated times. f Immunoblots of H1975 cell lysates following ES-072 treatment for 2 h, at indicated doses. g HEK293T cells were transfected with Flag-PD-L1 (WT/2SA) following treatment with 10 μM ES-072 for 2 h; PD-L1 was immunoprecipitated with anti-Flag and immunoblotted with indicated antibodies. Flag-tagged empty vector (Flag-EV) was transfected as a negative control. h Representative images of p-PD-L1 (Ser279) and PD-L1 immunohistochemistry (IHC) staining from EGFR wild-type vs. mutant human alveolar adenocarcinoma specimens. Scale bars represent 50 μm. i, j Quantification of IHC analysis for p-PD-L1 (Ser279) (i) and PD-L1 (j) in h. Data represent means ± SEM, n = 7 (i), n = 5 (j), **P < 0.01, P = 0.0013 (i); P = 0.002 (j). k Immunoblottings of p-PD-L1 (Ser279) and PD-L1 in EGFR wild-type (n = 4) vs. mutant (n = 4) human lung adenocarcinoma specimens. Source data are provided as a Source Data file.
Flag-tagged PD-L1 was overexpressed in HEK293T cells and were trypsin-digested. PD-L1 was immunoprecipitated with beads following immunoprecipitation. The resulting peptides were subjected to the phosphopeptide enrichment using TiO2 beads. The enriched phospho-peptides were analyzed on the Q Exactive™ HF mass spectrometer (Thermo Fisher Scientific). The identification and quantification of phosphorylated peptides were done by MaxQuant. The tandem mass spectra were searched against the UniProt human protein database together with a set of commonly observed contaminants. The precursor mass tolerance was set as 20 p.p.m. and the fragment mass tolerance was set as 0.1 Da. The […] cysteine carbamide methylation was set as a static modification and the methionine oxidation, as well as serine, threonine, and tyrosine phosphorylation, were set as variable modifications. The false discovery rate (FDR) at peptide spectrum match level was controlled below 1%.

The target of a further experiment is CDK6 (Homo sapiens, UniProt Q00534). Kind of experiment: In vitro kinase specificity profiling. It is filed as biochemical.
The next experiment concerns the target JAK2 (Homo sapiens, UniProt O60674). Description: In vitro kinase specificity profiling. It is filed as biochemical.
For another experiment, the target named is EGFR (Homo sapiens, UniProt P00533). Description: In vitro kinase specificity profiling. The class given is biochemical. The note with it: EGFR wild-type.
A further experiment addresses CDK4 (Homo sapiens, UniProt P11802). Description: In vitro kinase specificity profiling. The class given is biochemical.

Chain of GSK3α (P49840 whole entry): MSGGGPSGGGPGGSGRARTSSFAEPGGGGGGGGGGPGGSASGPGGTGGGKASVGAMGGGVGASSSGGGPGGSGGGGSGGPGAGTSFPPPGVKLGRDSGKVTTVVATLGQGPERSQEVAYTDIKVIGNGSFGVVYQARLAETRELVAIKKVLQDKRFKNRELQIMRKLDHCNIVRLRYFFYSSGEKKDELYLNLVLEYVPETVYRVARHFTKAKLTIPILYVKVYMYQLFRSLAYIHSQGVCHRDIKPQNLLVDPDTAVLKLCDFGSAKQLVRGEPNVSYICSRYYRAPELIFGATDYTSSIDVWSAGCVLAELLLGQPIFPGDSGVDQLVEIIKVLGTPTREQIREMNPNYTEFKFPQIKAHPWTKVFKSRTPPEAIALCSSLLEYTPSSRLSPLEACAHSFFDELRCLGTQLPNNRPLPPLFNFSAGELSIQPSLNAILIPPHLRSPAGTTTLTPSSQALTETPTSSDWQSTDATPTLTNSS
Chain of JAK2 (O60674 whole entry): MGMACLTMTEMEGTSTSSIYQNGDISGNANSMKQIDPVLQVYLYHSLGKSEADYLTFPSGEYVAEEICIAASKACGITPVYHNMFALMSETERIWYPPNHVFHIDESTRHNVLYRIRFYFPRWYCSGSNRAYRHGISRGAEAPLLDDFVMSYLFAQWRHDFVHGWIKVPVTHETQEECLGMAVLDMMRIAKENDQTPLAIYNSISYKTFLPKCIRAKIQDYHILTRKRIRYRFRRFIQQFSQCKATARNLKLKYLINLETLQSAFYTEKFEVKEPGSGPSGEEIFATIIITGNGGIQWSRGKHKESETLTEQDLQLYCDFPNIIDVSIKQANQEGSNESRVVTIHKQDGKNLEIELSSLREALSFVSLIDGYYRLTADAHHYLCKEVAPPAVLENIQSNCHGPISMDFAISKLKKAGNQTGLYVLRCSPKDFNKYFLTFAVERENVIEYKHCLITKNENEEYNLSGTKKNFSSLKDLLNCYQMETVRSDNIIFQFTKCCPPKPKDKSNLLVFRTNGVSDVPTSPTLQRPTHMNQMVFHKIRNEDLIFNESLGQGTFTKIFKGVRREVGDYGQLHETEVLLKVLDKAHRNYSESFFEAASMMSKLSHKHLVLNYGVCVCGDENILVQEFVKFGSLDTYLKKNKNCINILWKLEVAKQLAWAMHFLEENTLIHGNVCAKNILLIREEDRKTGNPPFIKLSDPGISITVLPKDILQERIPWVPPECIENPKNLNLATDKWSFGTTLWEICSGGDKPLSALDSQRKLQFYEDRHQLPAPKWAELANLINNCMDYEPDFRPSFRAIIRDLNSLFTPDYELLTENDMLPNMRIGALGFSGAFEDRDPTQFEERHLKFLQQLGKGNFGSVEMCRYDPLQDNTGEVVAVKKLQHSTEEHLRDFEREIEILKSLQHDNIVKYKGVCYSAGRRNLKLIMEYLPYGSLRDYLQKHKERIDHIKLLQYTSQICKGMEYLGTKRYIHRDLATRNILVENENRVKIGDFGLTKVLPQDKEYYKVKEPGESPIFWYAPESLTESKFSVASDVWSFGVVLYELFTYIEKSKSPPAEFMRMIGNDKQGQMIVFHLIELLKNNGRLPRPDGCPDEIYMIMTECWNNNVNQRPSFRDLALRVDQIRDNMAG
Chain of EGFR T790M (P00533 25-1210 T790M): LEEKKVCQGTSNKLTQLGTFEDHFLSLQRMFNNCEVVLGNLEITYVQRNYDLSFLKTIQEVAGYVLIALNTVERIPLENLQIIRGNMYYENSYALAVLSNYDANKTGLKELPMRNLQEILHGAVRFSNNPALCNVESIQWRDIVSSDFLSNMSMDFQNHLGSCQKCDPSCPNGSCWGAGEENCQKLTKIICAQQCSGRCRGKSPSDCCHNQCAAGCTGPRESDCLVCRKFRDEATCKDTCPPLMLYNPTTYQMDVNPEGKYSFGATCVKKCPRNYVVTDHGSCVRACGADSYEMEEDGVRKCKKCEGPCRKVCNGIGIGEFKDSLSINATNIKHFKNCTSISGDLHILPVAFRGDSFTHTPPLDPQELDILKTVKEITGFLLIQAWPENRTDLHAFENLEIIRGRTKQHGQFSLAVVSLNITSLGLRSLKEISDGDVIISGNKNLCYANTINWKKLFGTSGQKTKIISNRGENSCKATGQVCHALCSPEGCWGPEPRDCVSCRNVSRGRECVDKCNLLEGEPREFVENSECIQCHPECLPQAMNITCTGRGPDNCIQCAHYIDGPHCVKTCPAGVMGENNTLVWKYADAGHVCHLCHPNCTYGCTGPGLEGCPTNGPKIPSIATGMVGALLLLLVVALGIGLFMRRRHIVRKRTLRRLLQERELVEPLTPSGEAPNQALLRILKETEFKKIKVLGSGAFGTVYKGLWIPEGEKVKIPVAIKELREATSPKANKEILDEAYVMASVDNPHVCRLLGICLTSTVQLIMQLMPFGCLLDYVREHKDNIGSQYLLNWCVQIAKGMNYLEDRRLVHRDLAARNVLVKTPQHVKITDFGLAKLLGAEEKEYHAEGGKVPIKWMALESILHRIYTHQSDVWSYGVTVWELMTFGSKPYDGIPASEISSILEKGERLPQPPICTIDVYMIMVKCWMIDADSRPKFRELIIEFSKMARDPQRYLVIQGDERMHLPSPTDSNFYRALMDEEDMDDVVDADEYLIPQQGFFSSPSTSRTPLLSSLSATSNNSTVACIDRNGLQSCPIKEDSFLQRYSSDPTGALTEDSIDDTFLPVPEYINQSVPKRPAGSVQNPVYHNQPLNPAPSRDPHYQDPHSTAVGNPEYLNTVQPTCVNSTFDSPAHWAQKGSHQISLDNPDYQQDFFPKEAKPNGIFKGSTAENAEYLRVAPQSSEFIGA
Chain of EGFR L858R (P00533 25-1210 L858R): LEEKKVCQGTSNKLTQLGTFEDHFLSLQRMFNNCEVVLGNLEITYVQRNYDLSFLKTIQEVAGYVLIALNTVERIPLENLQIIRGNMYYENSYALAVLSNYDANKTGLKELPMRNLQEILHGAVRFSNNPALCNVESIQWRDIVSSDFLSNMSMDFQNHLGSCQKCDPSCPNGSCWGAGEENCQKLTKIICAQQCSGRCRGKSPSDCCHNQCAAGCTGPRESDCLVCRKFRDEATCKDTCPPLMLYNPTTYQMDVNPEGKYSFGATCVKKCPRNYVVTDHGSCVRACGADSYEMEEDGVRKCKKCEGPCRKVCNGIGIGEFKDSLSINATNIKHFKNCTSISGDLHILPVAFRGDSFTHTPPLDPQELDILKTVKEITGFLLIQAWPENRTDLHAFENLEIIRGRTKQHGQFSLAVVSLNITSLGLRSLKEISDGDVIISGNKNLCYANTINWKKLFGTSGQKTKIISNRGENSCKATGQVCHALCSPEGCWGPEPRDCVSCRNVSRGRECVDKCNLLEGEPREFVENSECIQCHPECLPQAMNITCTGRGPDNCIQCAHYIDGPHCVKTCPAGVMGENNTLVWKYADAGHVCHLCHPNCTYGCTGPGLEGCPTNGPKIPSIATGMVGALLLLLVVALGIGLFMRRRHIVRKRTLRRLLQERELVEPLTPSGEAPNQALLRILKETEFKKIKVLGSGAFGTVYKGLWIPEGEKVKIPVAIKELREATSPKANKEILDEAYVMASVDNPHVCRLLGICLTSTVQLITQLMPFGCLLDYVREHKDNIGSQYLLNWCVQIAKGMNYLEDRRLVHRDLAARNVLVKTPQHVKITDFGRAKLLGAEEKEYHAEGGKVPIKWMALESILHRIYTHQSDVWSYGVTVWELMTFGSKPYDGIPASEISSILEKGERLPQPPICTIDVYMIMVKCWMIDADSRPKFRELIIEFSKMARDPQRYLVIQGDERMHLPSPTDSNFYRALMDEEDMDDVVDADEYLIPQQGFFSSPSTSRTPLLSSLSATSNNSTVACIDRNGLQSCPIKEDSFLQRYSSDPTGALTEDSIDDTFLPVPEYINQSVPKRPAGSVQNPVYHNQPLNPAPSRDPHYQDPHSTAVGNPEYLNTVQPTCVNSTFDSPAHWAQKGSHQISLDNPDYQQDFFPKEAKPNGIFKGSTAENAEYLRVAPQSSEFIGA
Chain of CDK6 (Q00534 whole entry, species assumed): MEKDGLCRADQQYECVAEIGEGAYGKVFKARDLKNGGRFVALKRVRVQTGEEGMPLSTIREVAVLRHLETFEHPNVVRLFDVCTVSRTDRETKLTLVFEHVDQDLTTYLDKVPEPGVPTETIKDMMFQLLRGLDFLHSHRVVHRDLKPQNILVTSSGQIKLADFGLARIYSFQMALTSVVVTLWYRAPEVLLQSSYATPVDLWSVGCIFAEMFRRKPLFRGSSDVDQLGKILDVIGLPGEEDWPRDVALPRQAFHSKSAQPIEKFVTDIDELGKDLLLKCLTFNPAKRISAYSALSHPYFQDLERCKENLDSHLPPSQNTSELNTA
Chain of CDK6 (P30281 whole entry partner, species assumed): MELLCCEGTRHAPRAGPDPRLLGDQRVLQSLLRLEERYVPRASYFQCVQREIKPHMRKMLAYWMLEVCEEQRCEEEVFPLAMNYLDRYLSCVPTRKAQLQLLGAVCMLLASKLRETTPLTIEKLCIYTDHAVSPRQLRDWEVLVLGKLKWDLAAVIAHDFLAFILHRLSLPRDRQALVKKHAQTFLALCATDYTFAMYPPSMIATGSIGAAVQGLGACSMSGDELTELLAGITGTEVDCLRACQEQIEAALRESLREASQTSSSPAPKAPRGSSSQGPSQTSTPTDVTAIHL
Chain of CDK4 (P11802 whole entry, species assumed): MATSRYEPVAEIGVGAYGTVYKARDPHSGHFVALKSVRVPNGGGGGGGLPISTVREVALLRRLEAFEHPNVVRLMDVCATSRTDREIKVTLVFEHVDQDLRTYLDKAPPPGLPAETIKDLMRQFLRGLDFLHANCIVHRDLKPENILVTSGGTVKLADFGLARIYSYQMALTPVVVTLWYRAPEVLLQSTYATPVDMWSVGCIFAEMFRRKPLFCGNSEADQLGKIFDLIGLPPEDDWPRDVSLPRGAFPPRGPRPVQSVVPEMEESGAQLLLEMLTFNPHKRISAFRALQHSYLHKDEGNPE
Chain of CDK4 (P30281 whole entry partner, species assumed): as the sequence (P30281 whole entry partner, species assumed) above

Regarding `C=CC(=O)Nc1cccc(Nc2nc(Nc3ccc(N4CCN(C)CC4)nc3OC)ncc2C(F)(F)F)c1` [ES-072], the 50% inhibitory concentration (IC50) was 3850 nM against PDGFRa; below 0.5 nM against EGFR T790M; above 10000 nM at CMET; 127 nM against IGF1R; above 40000 nM against GSK3α (as worded in response to reviewers); above 40000 nM against GSK3α (single independent tests). For the same compound, the IC50 is 2.7 nM against EGFR L858R; 1.75 nM at T790M/L858R EGFR; 147 nM at HER2; above 10000 nM on CDK6; 4960 nM at JAK2; 8.9 nM against EGFR. The compound also showed an IC50 at CDK4 above 10000 nM. The “ES/NC (PD-L1 phosphorylation site S79)” value in the experiment with PD-L1 is listed as 1.28. The “ES/NC (PD-L1 phosphorylation site S93)” value in the experiment on PD-L1 is given as 1.52. The “ES/NC (PD-L1 phosphorylation site S170)” value in the experiment with PD-L1 is reported as 0.00. In the experiment with PD-L1, the “ES/NC (PD-L1 phosphorylation site S176)” value is on record as 0.00. Moreover, in the experiment with PD-L1, the “ES/NC (PD-L1 phosphorylation site S279)” value is 5.00. In the experiment on PD-L1, the “ES/NC (PD-L1 phosphorylation site S283)” value is 2.06. Also, in the experiment on PD-L1, the “ES/NC (PD-L1 phosphorylation site T290)” value turned out to be 1.95.

As a reminder, the IC50 is the concentration needed to halve the response being measured. Higher therefore signals weaker potency in that assay.
